Data: patent publication US20100331348A1, “TROPANE DERIVATIVES USEFUL AS PESTICIDES” (SYNGENTA CROP PROTECTION, INC., priority 2007, published 2010)

Assays:
[1] = test system: Aedes aegypti; test: Aedes aegypti (Yellow fever mosquito) larvae test; assay type: in vivo; settings: 48 h
[2] = test system: Phytophthora infestans; test: whole plant or invertebrate; assay type: in vivo; settings: foliar, 96 h, read-out: control of fungal infection, Phytophthora infestans
[3] = test system: Plutella xylostella; test: Plutella xylostella (Diamond back moth) artificial diet test; settings: 120 h, read-out: control of Plutella xylostella
[4] = test system: Erysiphe graminis f.sp. tritici; test: Erysiphe graminis f.sp. tritici (wheat powdery mildew) leaf disk assay; assay type: in vivo; settings: Blumeria graminis, foliar, 96 h, preventive, four days after inoculation, read-out: control of fungal infection, Erysiphe graminis fsp. tritici
[5] = test system: Plasmopara viticola; test: Plasmopara viticola (downy mildew of grapevine) leaf disk assay; assay type: in vivo; settings: foliar, 168 h, preventive, seven days after inoculation, read-out: control of fungal infection, Plasmopara viticola
[6] = test system: Puccinia recondita f.sp. tritici; test: Puccinia recondita f.sp. tritici (wheat brown rust) leaf disk assay; assay type: in vivo; settings: foliar, 216 h, preventive, nine days after inoculation, read-out: control of fungal infection, Puccinia recondita f.sp. tritici
[7] = test system: Pyricularia oryzae; test: whole plant or invertebrate; assay type: in vivo; settings: foliar, 96 h, read-out: control of fungal infection, Pyricularia oryzae (at least 60% list)

Compound | melting point [°C] | further results
COc1cc(C(C)=O)ccc1OC1C[C@H]2CC[C@@H](C1)N2c1ncnc2sccc12 (stereo partly shown) | 171 | 
CCc1ncnc(N2[C@@H]3CC[C@H]2CC(O)C3)c1Cl (stereo partly shown) | 104 | 
Cc1nn(C)c2nccc(N3[C@@H]4CC[C@H]3CC(Oc3ccc(Cl)cc3)C4)c12 (stereo partly shown) | 155 | 
CCc1ncnc(N2[C@@H]3CC[C@H]2CC(ON)C3)c1Cl (stereo partly shown) | 70 | 
Cc1noc2ncnc(N3[C@@H]4CC[C@H]3CC(Oc3cc(C(F)(F)F)ccn3)C4)c12 (stereo partly shown) | 192 | 
Cc1noc2ncnc(N3[C@@H]4CC[C@H]3CC(Oc3ccc(C(F)(F)F)cn3)C4)c12 (stereo partly shown) | 238 | 
N#Cc1c(Cl)nsc1N1[C@@H]2CC[C@H]1CC(Oc1cccc(C(F)(F)F)n1)C2 (stereo partly shown) | 158 | 
N#Cc1sc(N2[C@@H]3CC[C@H]2CC(Oc2cccc(C(F)(F)F)n2)C3)nc1C(F)(F)F (stereo partly shown) | 147 | 
FC(F)(F)c1ccc(OC2C[C@H]3CC[C@@H](C2)N3c2ccnc3cc(Cl)ccc23)nc1 (stereo partly shown) | 107 | 
N#Cc1sc(N2[C@@H]3CC[C@H]2CC(Oc2cc(C(F)(F)F)ccn2)C3)nc1C(F)(F)F (stereo partly shown) | 129 | 
N#Cc1c(Cl)nsc1N1[C@@H]2CC[C@H]1CC(Oc1ccc(C(F)(F)F)cn1)C2 (stereo partly shown) | 157 | 
N#Cc1sc(N2[C@@H]3CC[C@H]2CC(Oc2ccc(C(F)(F)F)cn2)C3)nc1C(F)(F)F (stereo partly shown) | 135 | 
Cn1cc(C(=O)N2[C@@H]3CC[C@H]2CC(Oc2cc(C(F)(F)F)ccn2)C3)c(C(F)(F)F)c1 (stereo partly shown) | 183 | 
Clc1ccc(OC2C[C@H]3CC[C@@H](C2)N3c2ncnc3sccc23)cc1 (stereo partly shown) | 184 | 
FC(F)(F)c1ccnc(OC2C[C@H]3CC[C@@H](C2)N3c2ncnc3ccsc23)c1 (stereo partly shown) | 211 | 
Cc1csc2c(N3[C@@H]4CC[C@H]3CC(Oc3cc(C(F)(F)F)ccn3)C4)ncnc12 (stereo partly shown) | 76 | 
CCc1ncnc(N2C3CCC2CC(=CC(=O)O)C3)c1Cl | 162 | 
CC(=O)NC1C[C@H]2CC[C@@H](C1)N2c1ncnc2sccc12 (stereo partly shown) | 196 | 
O=C(NC1C[C@H]2CC[C@@H](C1)N2c1ncnc2sccc12)c1cccnc1 (stereo partly shown) | 170 | 
CCc1ncnc(N2C3CCC2CC(=NO)C3)c1Cl | 73 | 
Cc1nn(C)c2nccc(N3C4CCC3CC(=NO)C4)c12 | 201 | 
CCc1ncnc(N2C3CCC2CC(CC(N)=O)C3)c1Cl (stereo not shown) | 101 | 
CCc1ncnc(N2C3CCC2CC(CC(N)=S)C3)c1Cl (stereo not shown) | 160 | 
CCc1ncnc(N2C3CCC2CC(CC(=O)O)C3)c1Cl (stereo not shown) | 109 | 
O=C(O)CC1CC2CCC(C1)N2c1ncnc2sccc12 (stereo not shown) | 181 | 
O=C1c2ccccc2C(=O)N1OC1C[C@H]2CC[C@@H](C1)N2c1ncnc2sccc12 (stereo partly shown) [1.73] | 243 | 
CCc1ccc(CON=C2CC3CCC(C2)N3c2ncnc(CC)c2Cl)cc1 [Example 5.17] |  | pest or weed control at 2 ppm [1]: ≥ 80%; pest or weed control at 200 ppm [2]: ≥ 80%; pest or weed control at 200 ppm [3]: ≥ 80%; pest or weed control at 200 ppm [4]: ≥ 80%; pest or weed control at 200 ppm [5]: ≥ 80%; pest or weed control at 200 ppm [6]: ≥ 80%
CCc1ncnc(N2C3CCC2CC(=NOCc2ccc(Br)cc2)C3)c1Cl [Example 5.19] |  | pest or weed control at 200 ppm [2]: ≥ 80%; pest or weed control at 200 ppm [3]: ≥ 80%; pest or weed control at 200 ppm [4]: ≥ 80%; pest or weed control at 200 ppm [5]: ≥ 80%; pest or weed control at 200 ppm [6]: ≥ 80%
Clc1ccccc1CON=C1CC2CCC(C1)N2c1ncnc2sccc12 [Example 5.141] |  | pest or weed control at 200 ppm [7]: ≥ 60%; pest or weed control at 2 ppm [1]: ≥ 80%; pest or weed control at 200 ppm [2]: ≥ 80%; pest or weed control at 200 ppm [3]: ≥ 80%; pest or weed control at 200 ppm [4]: ≥ 80%; pest or weed control at 200 ppm [5]: ≥ 80%; pest or weed control at 200 ppm [6]: ≥ 80%
Clc1ccc(-c2nc(CON=C3CC4CCC(C3)N4c3ncnc4sccc34)cs2)cc1 [Example 5.255] |  | pest or weed control at 2 ppm [1]: ≥ 80%; pest or weed control at 200 ppm [2]: ≥ 80%; pest or weed control at 200 ppm [4]: ≥ 80%; pest or weed control at 200 ppm [5]: ≥ 80%; pest or weed control at 200 ppm [6]: ≥ 80%
